Data on three molecules can be found in ChEMBL document CHEMBL1158845, “Antineoplastic agents. 386. Isolation of sesterstatins 1-3 from the marine sponge Hyrtios erecta” (1998).

The structures appear in SMILES notation. Converted amounts (≈) assume the structure as drawn. The source made the active and inactive calls. No cut-off for these calls is given here.

Test [1] relates to P388. As to the kind of experiment: Cytotoxicity against mouse P388 cells. Format: functional. The following applies: read-out: ED50 (the source's name).
In test [2] the test system is Staphylococcus aureus. As to the kind of experiment: Antibacterial activity against Staphylococcus aureus at 100 ug/disk by disk susceptibility test. Format: functional, organism-based.
The test system of test [3] is Neisseria gonorrhoeae. As to the kind of experiment: Antibacterial activity against Neisseria gonorrhoeae at 100 ug/disk by disk susceptibility test. The test is classed as functional, organism-based.
The subject of test [4] is Micrococcus luteus. As to the kind of experiment: Antibacterial activity against Micrococcus luteus at 100 ug/disk by disk susceptibility test. The test is classed as functional, organism-based.
For test [5], the system named is Cryptococcus neoformans. Briefly: Antimicrobial activity against Cryptococcus neoformans at 100 ug/disk by disk susceptibility test. Format: functional, organism-based.
Test [6] deals with Staphylococcus aureus. Briefly: Antibacterial activity against Staphylococcus aureus by disk susceptibility test. The test is classed as functional.

Turning to `CC1(C)[C@@H](O)CC[C@]2(C)[C@H]3C[C@@H](O)[C@]4(C)C5=C(CC[C@H]4[C@]3(C)CC[C@@H]12)COC5=O` [SESTERSTATIN 1], in test [1], the EC50 stood at 0.46 µg/mL (≈ 1.14 µM). For the same molecule, the outcome in test [2], in test [3], in test [4] and in test [5] was inactive.

With `C[C@]1(CO)CCC[C@]2(C)[C@H]3C[C@@H](O)[C@]4(C)C5=C(CC[C@H]4[C@]3(C)CC[C@@H]12)COC5=O` [SESTERSTATIN 2], the EC50 in test [1] amounted to 4.2 µg/mL (≈ 10.4 µM). For the same molecule, the MIC in test [6] is 50 µg. Also, the result in test [3], in test [4] and in test [5] was inactive.

Consider `C[C@@]1(CO)CCC[C@]2(C)[C@H]3C[C@@H](O)[C@]4(C)C5=C(CC[C@H]4[C@]3(C)CC[C@@H]12)COC5=O` [SESTERSTATIN 3], for which, in test [1], the EC50 came to 4.3 µg/mL (≈ 10.7 µM). The result in test [2], in test [3], in test [4] and in test [5] was inactive.
